Source: ChEMBL document CHEMBL1124501, “Novel cytotoxic compounds from the ascidian Lissoclinum bistratum” (J Med Chem, 1989)
In brackets after ≈: the same amount, converted by molar mass.

Key:
Assay type in all cases: functional, cell-based
[1] = system: T-24; test: Cytotoxicity evaluated by incorporation of [methyl-3H]thymidine into human T24, a bladder carcinoma cell line.
[2] = system: MRC5CV1; test: Cytotoxicity evaluated by incorporation of [methyl-3H]thymidine into human MRC5CV1, a control fibroblast cell line
[3] = system: T-24; test: Cytotoxicity evaluated by incorporation of [methyl-3H]thymidine into human T24, a bladder carcinoma cell line
[4] = system: P388; test: Cytotoxicity in vitro against P388 cell line.; settings: Mus musculus

SMILES | IC50 [1] [µg/mL] | IC50 [2] [µg/mL] | IC50 [3] [µg/mL] | IC50 [4] [µg/mL]
CC(C)[C@@H]1NC(=O)C2CSC(=N2)[C@H](Cc2ccccc2)NC(=O)C2CSC(=N2)[C@@H](C)NC(=O)[C@H]2N=C1O[C@@H]2C [BISTRATAMIDE A] | 0.07 (≈ 0.123 µM) | 50 (≈ 87.6 µM) | – | –
CC(C)[C@@H]1NC(=O)c2csc(n2)[C@H](Cc2ccccc2)NC(=O)C2CSC(=N2)[C@@H](C)NC(=O)[C@H]2N=C1O[C@@H]2C [BISTRATAMIDE B] | – | > 100 | 0.09 (≈ 0.158 µM) | –
C/C=C/C(=O)CC1CCC2(O)CC(C)C(CCCNC(=O)C(C)C3CNC(=O)CC(O1)C(C)CCCCC(CCC(C)/C=C(\C)C(C)O)O3)O2 (centres undefined) [BISTRATENE A] | 0.07 (≈ 0.0993 µM) | 0.07 (≈ 0.0993 µM) | – | –
C/C=C/C(=O)CC1CCC2(O)CC(C)C(CCCNC(=O)C(C)C3CNC(=O)CC(O1)C(C)CCCCC(CCC(C)/C=C(\C)C(C)OC(C)=O)O3)O2 (centres undefined) [BISTRATENE B] | 0.09 (≈ 0.12 µM) | 0.09 (≈ 0.12 µM) | – | –
CCC/C=C/C=C/C(=O)O[C@H]1/C(=C/C(=O)OC)C[C@H]2CC([C@@H](C)O)OC(=O)C[C@H](O)C[C@@H]3C[C@H](OC(C)=O)C(C)(C)[C@](O)(C[C@@H]4C/C(=C/C(=O)OC)C[C@H](/C=C/C(C)(C)[C@]1(O)O2)O4)O3 (some centres undefined) [BRYOSTATINS] | – | – | – | 0.89 (≈ 0.983 µM)
